According to patent US20230085307A1, “PYRIDAZINONE COMPOUND AND HERBICIDE” (NISSAN CHEMICAL CORPORATION, priority 2019, published 2023):

Assays:
rice flat sedge = test: Test Example 3: herbicidal effect by foliage application, Wagner pot (Table 18, symbol E); format: in vivo, rice flat sedge (Cyperus iria); conditions: 320 g/ha
Method in brief: (§1)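 Plants were sown in alluvial soil held under 0.1–0.5 cm standing water and grown 14 days in a greenhouse at 25–30 °C. An emulsifiable formulation, water-diluted to the set dose, was then sprayed onto the foliage, and effects were scored three weeks later using previously defined criteria.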

Chinese sprangletop = test: Test Example 3: herbicidal effect by foliage application, Wagner pot (Table 18, symbol D); format: in vivo, chinese sprangletop (Leptochloa chinensis); conditions: 320 g/ha
Method in brief: as §1

chickweed [1] = test: Test Example 5: herbicidal effect by foliage application, plastic box (Table 20, symbol P); format: in vivo, common chickweed (Stellaria media); conditions: 320 g/ha, foliage application after 14-day growth, evaluated three weeks after application
Method in brief: (§2)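 Foliar spray test: emulsion formulation diluted in water to a set application rate, sprayed onto 14-day-old plants raised in diluvial soil at 25° C to 30° C under glass. Both herbicidal effect and crop effect rated visually three weeks later.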

southern crabgrass [2] = test: Test Example 4: herbicidal effect by soil treatment (Table 19, symbol F); format: in vivo, southern crabgrass (Digitaria ciliaris); conditions: amount of applied herbicide 320 g/ha
Method in brief: (§3)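 Step 1: sow seeds in sterilized diluvial soil, cover ~1.5 cm. Step 2: spray diluted emulsion onto soil surface at predetermined rate. Step 3: greenhouse, 25–30° C, three weeks. Step 4: grade effect on each plant by earlier criteria.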

windgrass [3] = test: Test Example 4: herbicidal effect by soil treatment (Table 19, symbol L); format: in vivo, windgrass (Apera spica-venti); conditions: amount of applied herbicide 320 g/ha
Method in brief: as §3

chickweed [4] = test: Test Example 4: herbicidal effect by soil treatment (Table 19, symbol P); format: in vivo, common chickweed (Stellaria media); conditions: amount of applied herbicide 320 g/ha
Method in brief: as §3

green foxtail [5] = test: Test Example 5: herbicidal effect by foliage application, plastic box (Table 20, symbol G); format: in vivo, green foxtail (Setaria viridis); conditions: 320 g/ha, foliage application after 14-day growth, evaluated three weeks after application
Method in brief: as §2

wild oat [6] = test: Test Example 5: herbicidal effect by foliage application, plastic box (Table 20, symbol I); format: in vivo, wild oat (Avena fatua); conditions: 320 g/ha, foliage application after 14-day growth, evaluated three weeks after application
Method in brief: as §2

blackgrass [7] = test: Test Example 5: herbicidal effect by foliage application, plastic box (Table 20, symbol J); format: in vivo, blackgrass (Alopecurus myosuroides); conditions: 320 g/ha, foliage application after 14-day growth, evaluated three weeks after application
Method in brief: as §2

persian speedwell [8] = test: Test Example 4: herbicidal effect by soil treatment (Table 19, symbol R); format: in vivo, Persian speedwell (Veronica persica); conditions: amount of applied herbicide 320 g/ha
Method in brief: as §3

redroot pigweed [9] = test: Test Example 5: herbicidal effect by foliage application, plastic box (Table 20, symbol N); format: in vivo, redroot pigweed (Amaranthus retroflexus); conditions: 320 g/ha, foliage application after 14-day growth, evaluated three weeks after application
Method in brief: as §2

velvetleaf [10] = test: Test Example 5: herbicidal effect by foliage application, plastic box (Table 20, symbol M); format: in vivo, velvetleaf (Abutilon theophrasti); conditions: 320 g/ha, foliage application after 14-day growth, evaluated three weeks after application
Method in brief: as §2

green foxtail [11] = test: Test Example 4: herbicidal effect by soil treatment (Table 19, symbol G); format: in vivo, green foxtail (Setaria viridis); conditions: amount of applied herbicide 320 g/ha
Method in brief: as §3

southern crabgrass [12] = test: Test Example 5: herbicidal effect by foliage application, plastic box (Table 20, symbol F); format: in vivo, southern crabgrass (Digitaria ciliaris); conditions: 320 g/ha, foliage application after 14-day growth, evaluated three weeks after application
Method in brief: as §2

barnyard grass [13] = test: Test Example 4: herbicidal effect by soil treatment (Table 19, symbol H); format: in vivo, barnyard grass (Echinochloa crus-galli); conditions: amount of applied herbicide 320 g/ha
Method in brief: as §3

persian speedwell [14] = test: Test Example 5: herbicidal effect by foliage application, plastic box (Table 20, symbol R); format: in vivo, Persian speedwell (Veronica persica); conditions: 320 g/ha, foliage application after 14-day growth, evaluated three weeks after application
Method in brief: as §2

lambsquarters [15] = test: Test Example 4: herbicidal effect by soil treatment (Table 19, symbol O); format: in vivo, lambsquarters (Chenopodium album); conditions: amount of applied herbicide 320 g/ha
Method in brief: as §3

Italian ryegrass [16] = test: Test Example 4: herbicidal effect by soil treatment (Table 19, symbol K); format: in vivo, Italian ryegrass (Lolium multiflorum); conditions: amount of applied herbicide 320 g/ha
Method in brief: as §3

redroot pigweed [17] = test: Test Example 4: herbicidal effect by soil treatment (Table 19, symbol N); format: in vivo, redroot pigweed (Amaranthus retroflexus); conditions: amount of applied herbicide 320 g/ha
Method in brief: as §3

lambsquarters [18] = test: Test Example 5: herbicidal effect by foliage application, plastic box (Table 20, symbol O); format: in vivo, lambsquarters (Chenopodium album); conditions: 320 g/ha, foliage application after 14-day growth, evaluated three weeks after application
Method in brief: as §2

velvetleaf [19] = test: Test Example 4: herbicidal effect by soil treatment (Table 19, symbol M); format: in vivo, velvetleaf (Abutilon theophrasti); conditions: amount of applied herbicide 320 g/ha
Method in brief: as §3

windgrass [20] = test: Test Example 5: herbicidal effect by foliage application, plastic box (Table 20, symbol L); format: in vivo, windgrass (Apera spica-venti); conditions: 320 g/ha, foliage application after 14-day growth, evaluated three weeks after application
Method in brief: as §2

wild oat [21] = test: Test Example 4: herbicidal effect by soil treatment (Table 19, symbol I); format: in vivo, wild oat (Avena fatua); conditions: amount of applied herbicide 320 g/ha
Method in brief: as §3

Italian ryegrass [22] = test: Test Example 5: herbicidal effect by foliage application, plastic box (Table 20, symbol K); format: in vivo, Italian ryegrass (Lolium multiflorum); conditions: 320 g/ha, foliage application after 14-day growth, evaluated three weeks after application
Method in brief: as §2

barnyard grass [23] = test: Test Example 3: herbicidal effect by foliage application, Wagner pot (Table 18, symbol H); format: in vivo, barnyard grass (Echinochloa crus-galli); conditions: 320 g/ha
Method in brief: as §1

blackgrass [24] = test: Test Example 4: herbicidal effect by soil treatment (Table 19, symbol J); format: in vivo, blackgrass (Alopecurus myosuroides); conditions: amount of applied herbicide 320 g/ha
Method in brief: as §3

barnyard grass [25] = test: Test Example 5: herbicidal effect by foliage application, plastic box (Table 20, symbol H); format: in vivo, barnyard grass (Echinochloa crus-galli); conditions: 320 g/ha, foliage application after 14-day growth, evaluated three weeks after application
Method in brief: as §2

Cc1nn(C)c(=O)c(-c2c(-c3ccc(OC(F)(F)F)cc3)sc3c(F)cccc23)c1O [4-048]
herbicidal effect on rice flat sedge (E) (rice flat sedge): 5 (Herbicidal rate of 90% or more (almost completely withered))
herbicidal effect on Chinese sprangletop (D) (Chinese sprangletop): 5 (Herbicidal rate of 90% or more (almost completely withered))
herbicidal effect on P: chickweed (evaluation grade 0-5) (chickweed [1]): 5 (Herbicidal rate of 90% or more (almost completely withered))
Herbicidal effect by soil treatment, F: southern crabgrass (southern crabgrass [2]): 1 (Herbicidal rate of 5% or more and less than 20%)
Herbicidal effect by soil treatment, L: windgrass (windgrass [3]): 0 (Herbicidal rate of 5% or less (almost no effect))
Herbicidal effect by soil treatment, P: chickweed (chickweed [4]): 1 (Herbicidal rate of 5% or more and less than 20%)
herbicidal effect on G: green foxtail (evaluation grade 0-5) (green foxtail [5]): 5 (Herbicidal rate of 90% or more (almost completely withered))
herbicidal effect on I: wild oat (evaluation grade 0-5) (wild oat [6]): 3 (Herbicidal rate of 40% or more and less than 70%)
herbicidal effect on J: blackgrass (evaluation grade 0-5) (blackgrass [7]): 0 (Herbicidal rate of 5% or less (almost no effect))
Herbicidal effect by soil treatment, R: persian speedwell (persian speedwell [8]): 5 (Herbicidal rate of 90% or more (almost completely withered))
herbicidal effect on N: redroot pigweed (evaluation grade 0-5) (redroot pigweed [9]): 5 (Herbicidal rate of 90% or more (almost completely withered))
herbicidal effect on M: velvetleaf (evaluation grade 0-5) (velvetleaf [10]): 3 (Herbicidal rate of 40% or more and less than 70%)
Herbicidal effect by soil treatment, G: green foxtail (green foxtail [11]): 0 (Herbicidal rate of 5% or less (almost no effect))
herbicidal effect on F: southern crabgrass (evaluation grade 0-5) (southern crabgrass [12]): 1 (Herbicidal rate of 5% or more and less than 20%)
Herbicidal effect by soil treatment, H: barnyard grass (barnyard grass [13]): 2 (Herbicidal rate of 20% or more and less than 40%)
herbicidal effect on R: persian speedwell (evaluation grade 0-5) (persian speedwell [14]): 5 (Herbicidal rate of 90% or more (almost completely withered))
Herbicidal effect by soil treatment, O: lambsquarters (lambsquarters [15]): 1 (Herbicidal rate of 5% or more and less than 20%)
Herbicidal effect by soil treatment, K: Italian ryegrass (Italian ryegrass [16]): 0 (Herbicidal rate of 5% or less (almost no effect))
Herbicidal effect by soil treatment, N: redroot pigweed (redroot pigweed [17]): 3 (Herbicidal rate of 40% or more and less than 70%)
herbicidal effect on O: lambsquarters (evaluation grade 0-5) (lambsquarters [18]): 3 (Herbicidal rate of 40% or more and less than 70%)
Herbicidal effect by soil treatment, M: velvetleaf (velvetleaf [19]): 0 (Herbicidal rate of 5% or less (almost no effect))
herbicidal effect on L: windgrass (evaluation grade 0-5) (windgrass [20]): 5 (Herbicidal rate of 90% or more (almost completely withered))
Herbicidal effect by soil treatment, I: wild oat (wild oat [21]): 0 (Herbicidal rate of 5% or less (almost no effect))
herbicidal effect on K: Italian ryegrass (evaluation grade 0-5) (Italian ryegrass [22]): 4 (Herbicidal rate of 70% or more and less than 90%)
herbicidal effect on barnyard grass (H) (barnyard grass [23]): 5 (Herbicidal rate of 90% or more (almost completely withered))
Herbicidal effect by soil treatment, J: blackgrass (blackgrass [24]): 0 (Herbicidal rate of 5% or less (almost no effect))
herbicidal effect on H: barnyard grass (evaluation grade 0-5) (barnyard grass [25]): 5 (Herbicidal rate of 90% or more (almost completely withered))
